From patent publication US20070149547A1, “Bipyridyl amides as modulators of metabotropic glutamate receptor-5” (priority 2004, published 2007)

Biological target: T1, hmGluR5a receptor (Homo sapiens, UniProt P41594)
T1 construct: expressed in transfected cells; host or cells: HEK293 cells (hm5a cell line)
Experiment: Calcium flux assay (fura-2, glutamate-evoked [Ca2+]i)
Format: cell-based
Conditions: assay not given; follows the calcium flux / PI statement; read-out: IC50 (mGluR5 inhibitory activity)
Protocol: The compounds of this invention were tested against the hmGluR5a receptor stably expressed in mouse fibroblast Ltk^− cells (the hmGluR5a/L38-20 cell line) and activity was detected by changes in [Ca^++]i, measured using the fluorescent Ca^++-sensitive dye, fura-2. InsP assays were performed in mouse fibroblast Ltk^− cells (LM5a cell line) stably expressing hmGluR5a. The assays described in International Patent Publication WO 0116121 can be used.
The activity of compounds was examined against the hmGluR5a receptor stably expressed in human embryonic kidney HEK293 cells (the hmGluR5a cell line designated hm5a). See generally Daggett et al., Neuropharmacology 34:871-886 (1995). Receptor activity was detected by changes in intracellular calcium ([Ca^2+]i) measured using the fluorescent calcium-sensitive dye, fura-2. The hm5a cells were plated onto 96-well plates, and loaded with 3 µM fura-2 for 1 h. Unincorporated dye was washed from the cells, and the cell plate was transferred to a 96-channel fluorimeter (SIBIA-SAIC, La Jolla, Calif.) which is integrated into a fully automated plate handling and liquid delivery system. Cells were excited at 350 and 385 nm with a xenon source combined with optical filters. Emitted light was collected from the sample through a dichroic mirror and a 510 nm interference filter and directed into a cooled CCD camera (Princeton Instruments). Image pairs were captured approximately every 1 s, and ratio images were generated after background subtraction. After a basal reading of 20 s, an EC80 concentration of glutamate (10 µM) was added to the well, and the response evaluated for another 60 s. The glutamate-evoked increase in [Ca′]i in the presence of the screening compound was compared to the response of glutamate alone (the positive control).

T1 sequence (P41594 21-1180 isoform P41594-2 limits assumed): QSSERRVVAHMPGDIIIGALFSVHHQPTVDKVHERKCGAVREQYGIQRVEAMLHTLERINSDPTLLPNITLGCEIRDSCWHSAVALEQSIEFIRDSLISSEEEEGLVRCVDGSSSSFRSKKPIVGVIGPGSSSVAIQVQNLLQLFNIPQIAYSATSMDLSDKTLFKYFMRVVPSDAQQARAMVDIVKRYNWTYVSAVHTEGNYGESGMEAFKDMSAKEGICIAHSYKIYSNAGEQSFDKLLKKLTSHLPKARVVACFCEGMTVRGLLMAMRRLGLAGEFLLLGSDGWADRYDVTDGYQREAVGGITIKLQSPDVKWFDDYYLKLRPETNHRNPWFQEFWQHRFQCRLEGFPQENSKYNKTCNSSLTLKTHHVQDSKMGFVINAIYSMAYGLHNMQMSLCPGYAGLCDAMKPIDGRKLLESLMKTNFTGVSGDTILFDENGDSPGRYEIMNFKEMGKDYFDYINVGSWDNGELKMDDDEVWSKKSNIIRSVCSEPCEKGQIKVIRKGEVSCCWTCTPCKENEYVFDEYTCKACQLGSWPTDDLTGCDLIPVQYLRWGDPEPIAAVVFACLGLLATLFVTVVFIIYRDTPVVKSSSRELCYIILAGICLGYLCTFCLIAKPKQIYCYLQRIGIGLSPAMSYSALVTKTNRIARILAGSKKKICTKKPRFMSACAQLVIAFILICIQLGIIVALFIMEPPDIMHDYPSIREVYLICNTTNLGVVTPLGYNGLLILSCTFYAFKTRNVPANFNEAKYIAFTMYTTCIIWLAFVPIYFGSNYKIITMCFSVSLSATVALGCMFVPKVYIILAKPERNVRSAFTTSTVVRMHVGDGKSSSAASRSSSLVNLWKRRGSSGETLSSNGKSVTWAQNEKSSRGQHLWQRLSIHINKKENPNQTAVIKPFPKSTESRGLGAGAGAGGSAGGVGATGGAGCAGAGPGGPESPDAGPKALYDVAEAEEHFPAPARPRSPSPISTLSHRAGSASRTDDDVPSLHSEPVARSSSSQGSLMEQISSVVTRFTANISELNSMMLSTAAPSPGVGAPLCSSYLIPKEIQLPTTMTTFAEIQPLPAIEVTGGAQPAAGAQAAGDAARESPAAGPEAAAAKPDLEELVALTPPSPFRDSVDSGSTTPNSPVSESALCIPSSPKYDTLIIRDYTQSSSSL

IC50 [nM]	SMILES
500	N#Cc1cccc(NC(=O)c2nc(Cl)cnc2N)n1 [Example 29, 3-Amino-6-chloro-N-(6-cyanopyridin-2-yl)pyrazine-2-carboxamide]
1300	Nc1nc(C(F)(F)F)cnc1C(=O)Nc1ccccn1 [Example 38, 3-Amino-N-pyridin-2-yl-5-(trifluoromethyl)pyrazine-2-carboxamide]
3000	Cc1cccc(C(=O)Nc2cccc(-c3ccccc3)n2)n1 [Example 58, 6-Methyl-N-(6-phenylpyridin-2-yl)pyridine-2-carboxamide]
